Measurements: ChEMBL document CHEMBL1129854, “Novel small molecule neurotensin antagonists: 3-(1,5-diaryl-1,5-dioxopentan-3-yl)benzoic acids” (Bioorg Med Chem Lett, 1997)

Tests used:
[1] = Inhibition of the binding of [3H]NT to neurotensin (NT) receptor in mouse brain tissue; type: tissue-based
[2] = system: HT-29; assay: In vitro ability to inhibit the calcium mobilization induced by neurotensin (NT) in HT-29 cells; type: functional, cell-based; conditions: Homo sapiens

O=C(O)c1cccc(C(CC(=O)c2ccccc2)CC(=O)c2ccccc2)c1
Ki [1]: > 10000 nM

COc1cccc(OC)c1-c1cc(C(=O)NC2(C(=O)O)C3CC4CC(C3)CC2C4)nn1-c1ccnc2cc(Cl)ccc12 (stereo not drawn) [REMINERTANT]
Ki [1]: 3.9 nM | IC50 [2]: 160 nM
